Drawing on patent publication US20260274829A1, “NEW E3 UBIQUITIN LIGASE LIGAND, PROTEIN DEGRADATION AGENT AND USE THEREOF” (GLUETACS THERAPEUTICS (SHANGHAI) CO., LTD., priority 2023, published 2026), this text covers IC50 for 22 molecules.

A value given as a limit tells only on which side of the number the result lay.

For this test, the target named is T1, human Cereblon WT GST-tagged protein (Homo sapiens, UniProt Q96SW2).
T1 construct: purchased CISBIO 64BDCRBNPEH
T1 sequence (Q96SW2 whole entry): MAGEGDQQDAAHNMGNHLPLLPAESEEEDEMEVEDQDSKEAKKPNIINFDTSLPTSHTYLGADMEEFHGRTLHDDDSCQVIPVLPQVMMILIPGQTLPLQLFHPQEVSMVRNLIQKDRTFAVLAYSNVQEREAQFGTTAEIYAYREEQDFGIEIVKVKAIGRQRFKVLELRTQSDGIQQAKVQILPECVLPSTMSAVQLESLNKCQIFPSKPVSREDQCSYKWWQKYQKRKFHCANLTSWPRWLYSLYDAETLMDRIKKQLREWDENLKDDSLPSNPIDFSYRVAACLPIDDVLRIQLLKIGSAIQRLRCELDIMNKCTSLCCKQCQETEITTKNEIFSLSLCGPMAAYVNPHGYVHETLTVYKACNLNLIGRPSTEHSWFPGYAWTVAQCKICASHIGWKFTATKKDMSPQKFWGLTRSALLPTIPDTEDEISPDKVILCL
The test is described as follows: CRBN binding, HTRF CEREBLON BINDING kit. The settings on record: CRBN binding, HTRF CEREBLON BINDING kit. In short, it runs like this:
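Binding inhibition was calculated from the 665/620 nm emission ratios, with blank wells and solvent wells as references. Test compounds competed for GST-tagged human Cereblon WT against a Thalidomide-Re reagent paired with GST Eu antibody. Plates were sealed and held at room temperature for 3 hours before the HTRF read.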
For orientation: In TR-FRET formats the signal depends on donor and acceptor labels being close together.
A word on the IC50: it is the point on the concentration scale where inhibition reaches its midpoint. As for `Cc1cc(-c2nc(C(=O)Nc3cc4oc(N5CCN(Cc6ccc(N7CCC(=O)NC7=O)cc6)CC5)nc4nc3N3CC[C@@H](O)C3)co2)ccn1` [GT-05807, (R)—N-(2-(4-(4-(2,4-dioxotetrahydropyrimidin-1(2H)-yl)benzyl)piperazin-1-yl)-5-(3-hydroxypyrrolidin-1-yl)oxazolo[4,5-b]pyridin-6-yl)-2-(2-methylpyridin-4-yl)oxazole-4-carboxamide], the IC50 was in the range of 500 to 1000 nM.

`Cc1cc(-c2nc(C(=O)Nc3cc4oc(N5CCN(Cc6cccc(N7CCC(=O)NC7=O)c6)CC5)nc4nc3N3CC[C@@H](O)C3)co2)ccn1` [GT-05808, (R)—N-(2-(4-(3-(2,4-dioxotetrahydropyrimidin-1(2H)-yl)benzyl)piperazin-1-yl)-5-(3-hydroxypyrrolidin-1-yl)oxazolo[4,5-b]pyridin-6-yl)-2-(2-methylpyridin-4-yl)oxazole-4-carboxamide] had an IC50 of 500 to 1000 nM.

For `O=C1CCN(c2cccc(CN3CCN(c4ccc(Nc5ncc6nc(Nc7ccccc7)n(C7CCCC7)c6n5)cc4)CC3)c2)C(=O)N1` [GT-05838, 1-(3-((4-(4-((9-cyclopentyl-8-(phenylamino)-9H-purin-2-yl)amino)phenyl)piperazin-1-yl)methyl)phenyl)dihydropyrimidine-2,4(1H,3H)-dione], the IC50 fell in the range of 500 to 1000 nM.

With `O=C1CCN(c2ccc(CN3CCN(c4ccc(Nc5ncc6nc(Nc7ccccc7)n(C7CCCC7)c6n5)cc4)CC3)nc2)C(=O)N1` [GT-05839, 1-(6-((4-(4-((9-cyclopentyl-8-(phenylamino)-9H-purin-2-yl)amino)phenyl)piperazin-1-yl)methyl)pyridin-3-yl)dihydropyrimidine-2,4(1H,3H)-dione], the IC50 fell in the range of 500 to 1000 nM.

The molecule `O=C1CCC(Nc2cccc(CN3CCN(c4ccc(Nc5ncc6nc(Nc7ccccc7)n(C7CCCC7)c6n5)cc4)CC3)c2)C(=O)N1` (stereo not shown) [GT-05841, 3-((3-((4-(4-((9-cyclopentyl-8-(phenylamino)-9H-purin-2-yl)amino)phenyl)piperazin-1-yl)methyl)phenyl)amino)piperidine-2,6-dione] gave a half-inhibitory concentration (IC50) below 500 nM.

In turn, `CN(Cc1cccc(N2CCC(=O)NC2=O)c1)C1CCN(c2ccc(Nc3ncc4nc(Nc5ccccc5)n(C5CCCC5)c4n3)cc2)CC1` [GT-05870, 1-(3-(((1-(4-((9-cyclopentyl-8-(phenylamino)-9H-purin-2-yl)amino)phenyl)piperidin-4-yl)(methyl)amino)methyl)phenyl)dihydropyrimidine-2,4(1H,3H)-dione] displayed an IC50 of 500 to 1000 nM.

The molecule `O=C1CCC(c2ccc(CN3CCN(C4CCN(c5ccc(Nc6ncc7nc(Nc8ccccc8)n(C8CCCC8)c7n6)cc5)CC4)CC3)cc2)C(=O)N1` (stereo not shown) [GT-05915, 3-(4-((4-(1-(4-((9-cyclopentyl-8-(phenylamino)-9H-purin-2-yl)amino)phenyl)piperidin-4-yl)piperazin-1-yl)methyl)phenyl)piperidine-2,6-dione] gave an IC50 below 500 nM.

`O=C1CCN(c2ccc(CN3CCN(C4CCN(c5ccc(Nc6ncc7nc(Nc8ccccc8)n(C8CCCC8)c7n6)cc5)CC4)CC3)cc2)C(=O)N1` [GT-05917, 1-(4-((4-(1-(4-((9-cyclopentyl-8-(phenylamino)-9H-purin-2-yl)amino)phenyl)piperidin-4-yl)piperazin-1-yl)methyl)phenyl)dihydropyrimidine-2,4(1H,3H)-dione] yielded an IC50 of 500 to 1000 nM.

`O=C1CCN(c2cccc(CN3CCN(C4CCN(c5ccc(Nc6ncc7nc(Nc8ccccc8)n(C8CCCC8)c7n6)cc5)CC4)CC3)c2)C(=O)N1` [GT-05940, 1-(3-((4-(1-(4-((9-cyclopentyl-8-(phenylamino)-9H-purin-2-yl)amino)phenyl)piperidin-4-yl)piperazin-1-yl)methyl)phenyl)dihydropyrimidine-2,4(1H,3H)-dione] gave an IC50 of 500 to 1000 nM.

`O=C1CCN(c2ccc(CN3CCN(C4CCN(c5ccc(Nc6ncc7nc(Nc8ccccc8)n(C8CCCC8)c7n6)cc5)CC4)CC3)nc2)C(=O)N1` [GT-05941, 1-(6-((4-(1-(4-((9-cyclopentyl-8-(phenylamino)-9H-purin-2-yl)amino)phenyl)piperidin-4-yl)piperazin-1-yl)methyl)pyridin-3-yl)dihydropyrimidine-2,4(1H,3H)-dione] came in with an IC50 of 1000 to 1900 nM.

As for `O=C1CCC(Nc2cccc(CN3CCN(C4CCN(c5ccc(Nc6ncc7nc(Nc8ccccc8)n(C8CCCC8)c7n6)cc5)CC4)CC3)c2)C(=O)N1` (stereo not shown) [GT-05943, 3-((3-((4-(1-(4-((9-cyclopentyl-8-(phenylamino)-9H-purin-2-yl)amino)phenyl)piperidin-4-yl)piperazin-1-yl)methyl)phenyl)amino)piperidine-2,6-dione], the IC50 was 500 to 1000 nM.

Turning to `COc1cc(N2CCC(N(C)Cc3ccc(N4CCC(=O)NC4=O)cn3)CC2)c(C)cc1Nc1ncc(Br)c(Nc2ccc3nccnc3c2P(C)(C)=O)n1` [GT-05952, 1-(6-(((1-(4-((5-bromo-4-((5-(dimethylphosphoryl)quinoxalin-6-yl)amino)pyrimidin-2-yl)amino)-5-methoxy-2-methylphenyl)piperidin-4-yl)(methyl)amino)methyl)pyridin-3-yl)dihydropyrimidine-2,4(1H,3H)-dione], the half-maximal inhibitory concentration (IC50) is 500 to 1000 nM.

The molecule `COc1cc(N2CCC(N3CCN(Cc4ccc(C5CCC(=O)NC5=O)cc4)CC3)CC2)c(C)cc1Nc1ncc(Br)c(Nc2ccc3nccnc3c2P(C)(C)=O)n1` (stereo not shown) [GT-05999, 3-(4-((4-(1-(4-((5-bromo-4-((5-(dimethylphosphoryl)quinoxalin-6-yl)amino)pyrimidin-2-yl)amino)-5-methoxy-2-methylphenyl)piperidin-4-yl)piperazin-1-yl)methyl)phenyl)piperidine-2,6-dione] registered an IC50 of 1000 to 1900 nM.

Take `COc1cc(N2CCC(N3CCN(Cc4ccc(N5CCC(=O)NC5=O)cn4)CC3)CC2)c(C)cc1Nc1ncc(Br)c(Nc2ccc3nccnc3c2P(C)(C)=O)n1` [GT-06003, 1-(6-((4-(1-(4-((5-bromo-4-((5-(dimethylphosphoryl)quinoxalin-6-yl)amino)pyrimidin-2-yl)amino)-5-methoxy-2-methylphenyl)piperidin-4-yl)piperazin-1-yl)methyl)pyridin-3-yl)dihydropyrimidine-2,4(1H,3H)-dione]: the IC50 lay within 1000 to 1900 nM.

As for `COC1CCN(c2nccc(Nc3cc4c(cn3)c(N3CCN(Cc5ccc(C6CCC(=O)NC6=O)cc5)CC3)nn4C(C)C)n2)CC1` (stereo not shown) [GT-06036, 3-(4-((4-(1-isopropyl-6-((2-(4-methoxypiperidin-1-yl)pyrimidin-4-yl)amino)-1H-pyrazolo[4,3-c]pyridin-3-yl)piperazin-1-yl)methyl)phenyl)piperidine-2,6-dione], the IC50 was in the range of 1000 to 1900 nM.

`CC(C)n1nc(N2CCC(N3CCN(Cc4cccc(N5CCC(=O)NC5=O)c4)CC3)CC2)c2cnc(Nc3ccnc(-c4cnn(S(=O)(=O)C5CC5)c4)n3)cc21` [GT-06080, 1-(3-((4-(1-(6-((2-(1-(cyclopropylsulfonyl)-1H-pyrazol-4-yl)pyrimidin-4-yl)amino)-1-isopropyl-1H-pyrazolo[4,3-c]pyridin-3-yl)piperidin-4-yl)piperazin-1-yl)methyl)phenyl)dihydropyrimidine-2,4(1H,3H)-dione]: the IC50 was 500 to 1000 nM.

With `COC1CCN(c2nccc(Nc3cc4c(cn3)c(N3CCC(N(C)Cc5cccc(N6CCC(=O)NC6=O)c5)CC3)nn4C(C)C)n2)CC1` [GT-06122, 1-(3-(((1-(1-isopropyl-6-((2-(4-methoxypiperidin-1-yl)pyrimidin-4-yl)amino)-1H-pyrazolo[4,3-c]pyridin-3-yl)piperidin-4-yl)(methyl)amino)methyl)phenyl)dihydropyrimidine-2,4(1H,3H)-dione], the IC50 is 1000 to 1900 nM.

In turn, `COC1CCN(c2nccc(Nc3cc4c(cn3)c(N3CCC(N(C)Cc5cccc(NC6CCC(=O)NC6=O)c5)CC3)nn4C(C)C)n2)CC1` (stereo not shown) [GT-06123, 3-((3-(((1-(1-isopropyl-6-((2-(4-methoxypiperidin-1-yl)pyrimidin-4-yl)amino)-1H-pyrazolo[4,3-c]pyridin-3-yl)piperidin-4-yl)(methyl)amino)methyl)phenyl)amino)piperidine-2,6-dione] showed an IC50 of 500 to 1000 nM.

The molecule `O=C1CCC(c2ccc(CN3CCN(c4ccc(-c5cc(F)c6c(c5)C(=O)N(C(C(=O)Nc5nccs5)c5ncn7c5CCC7)C6)cc4)CC3)cc2)C(=O)N1` (stereo not shown) [GT-06163, 2-(6,7-dihydro-5H-pyrrolo[1,2-c]imidazol-1-yl)-2-(6-(4-(4-(4-(2,6-dioxopiperidin-3-yl)benzyl)piperazin-1-yl)phenyl)-4-fluoro-1-oxoisoindolin-2-yl)-N-(thiazol-2-yl)acetamide] showed an IC50 of 500 to 1000 nM.

Molecule `O=C1CCN(c2ccc(CN3CCN(c4ccc(-c5cc(F)c6c(c5)C(=O)N(C(C(=O)Nc5nccs5)c5ncn7c5CCC7)C6)cc4)CC3)cc2)C(=O)N1` (stereo not shown) [GT-06164, 2-(6,7-dihydro-5H-pyrrolo[1,2-c]imidazol-1-yl)-2-(6-(4-(4-(4-(2,4-dioxotetrahydropyrimidin-1(2H)-yl)benzyl)piperazin-1-yl)phenyl)-4-fluoro-1-oxoisoindolin-2-yl)-N-(thiazol-2-yl)acetamide] gave a half-inhibitory concentration (IC50) of 500 to 1000 nM.

For `O=C1CCN(c2cccc(CN3CCN(c4ccc(-c5cc(F)c6c(c5)C(=O)N(C(C(=O)Nc5nccs5)c5ncn7c5CCC7)C6)cc4)CC3)c2)C(=O)N1` (stereo not shown) [GT-06165, 2-(6,7-dihydro-5H-pyrrolo[1,2-c]imidazol-1-yl)-2-(6-(4-(4-(3-(2,4-dioxotetrahydropyrimidin-1(2H)-yl)benzyl)piperazin-1-yl)phenyl)-4-fluoro-1-oxoisoindolin-2-yl)-N-(thiazol-2-yl)acetamide], the IC50 was below 500 nM.

With `O=C1CCC(c2ccc(CN3C[C@H]4C[C@@H]3CN4c3ccc(-c4cc(F)c5c(c4)C(=O)N(C(C(=O)Nc4nccs4)c4ncn6c4CCC6)C5)cc3)cc2)C(=O)N1` (stereo partly drawn) [GT-06176, 2-(6,7-dihydro-5H-pyrrolo[1,2-c]imidazol-1-yl)-2-(6-(4-((1R,4R)-5-(4-(2,6-dioxopiperidin-3-yl)benzyl)-2,5-diazabicyclo[2.2.1]heptan-2-yl)phenyl)-4-fluoro-1-oxoisoindolin-2-yl)-N-(thiazol-2-yl)acetamide], the IC50 is 500 to 1000 nM.
